Values quoted from earlier work as cited in patent publication US20030133872A1, “Radiopharmaceutical agent for the treatment of early stage cancer” (priority 2001, published 2003).

Conditions: Woolfenden et al., Int. J. Nucl. Med. 10 (4), 251-256 (1983)

liver uptake: high liver uptake
Structure (SMILES): [153Sm+3].[Cl-].[Cl-].[Cl-] [^153Sm-chloride]
